Assay in all cases: relative viability (nuclei count vs DMSO), 5 days (fraction); higher = more cells survive
Compound in the test “kb NB 142-70 + Lapatinib”: C1CSC2=C(C(=O)N1)SC3=C2C=C(C=C3)O [kb NB 142-70] + CS(=O)(=O)CCNCc1ccc(-c2ccc3ncnc(Nc4ccc(OCc5cccc(F)c5)c(Cl)c4)c3c2)o1 [Lapatinib] (partner 2 µM)
In a few lines:
(§1)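 Nuclei were stained with Hoechst during a one-step fixation (final 0.05% Triton X-100, 1% formaldehyde, 1 ug/ml Hoechst) carried out 5 days after dosing, then counted on 4× images. The cells, lung cancer lines in 1536-well plates, had been dosed by pin tool the day after seeding with one drug alone or a fixed anchor-drug dose plus five library-drug doses (not always all listed) in √10 steps. Relative viability is the nuclei count in treated wells divided by that in vehicle wells, and each value is the median of duplicate plates.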

Compound in test [1]: NCC(=O)Nc1ccc(-n2nc(C(F)(F)F)cc2-c2ccc3c(ccc4ccccc43)c2)cc1 + N=C(N)NC(=N)NCCc1ccccc1 [Phenformin] (partner 250 µM)
In a few lines:
as §1

Compound in test [2]: NCC(=O)Nc1ccc(-n2nc(C(F)(F)F)cc2-c2ccc3c(ccc4ccccc43)c2)cc1 + CC(=O)c1c(C)c2cnc(Nc3ccc(N4CCNCC4)cn3)nc2n(C2CCCC2)c1=O [Palbociclib] (partner 0.5 µM)
In a few lines:
as §1

Compound in test [3]: NCC(=O)Nc1ccc(-n2nc(C(F)(F)F)cc2-c2ccc3c(ccc4ccccc43)c2)cc1 + Cc1nc(Nc2ncc(C(=O)Nc3c(C)cccc3Cl)s2)cc(N2CCN(CCO)CC2)n1 [Dasatinib] (partner 0.075 µM)
In a few lines:
as §1

For LK-2, the relative viability is 0.802 in the test with kb NB 142-70 + Lapatinib (first compound 0.1 µM); 0.734 with kb NB 142-70 + Lapatinib (first compound 1 µM); 0.536 in the test with kb NB 142-70 + Lapatinib (first compound 3.162 µM); 0.31 in test [1] (first compound 0.02 µM); 0.638 in test [1] (first compound 0.06325 µM); 0.425 in test [1] (first compound 0.2 µM). Further, the relative viability in test [1] (first compound 0.6325 µM) is 0.496; in test [1] (first compound 2 µM), 0.435; in test [2] (first compound 0.02 µM), 0.538; in test [2] (first compound 0.06325 µM), 0.831; in test [2] (first compound 0.2 µM) it was 0.539; in test [2] (first compound 0.6325 µM), 0.675. Moreover, the relative viability in test [2] (first compound 2 µM) stood at 0.636; in test [3] (first compound 0.02 µM), 0.32; in test [3] (first compound 0.06325 µM), 0.325; in test [3] (first compound 0.2 µM) it was 0.271; in test [3] (first compound 0.6325 µM), 0.266; in test [3] (first compound 2 µM) it was 0.263.
Turning to NCI-H2126, the relative viability came out at 0.818 with kb NB 142-70 + Lapatinib (first compound 0.1 µM); 0.739 in the test with kb NB 142-70 + Lapatinib (first compound 1 µM); 0.783 in the test with kb NB 142-70 + Lapatinib (first compound 3.162 µM); 0.515 in test [1] (first compound 0.02 µM); 0.559 in test [1] (first compound 0.06325 µM); 0.5 in test [1] (first compound 0.2 µM). Moreover, the relative viability was 0.518 in test [1] (first compound 0.6325 µM); 0.539 in test [1] (first compound 2 µM); 0.369 in test [2] (first compound 0.02 µM); 0.334 in test [2] (first compound 0.06325 µM); 0.369 in test [2] (first compound 0.2 µM); 0.385 in test [2] (first compound 0.6325 µM). Further, the relative viability stood at 0.327 in test [2] (first compound 2 µM); 0.573 in test [3] (first compound 0.02 µM); 0.664 in test [3] (first compound 0.06325 µM); 0.667 in test [3] (first compound 0.2 µM); 0.702 in test [3] (first compound 0.6325 µM); 0.602 in test [3] (first compound 2 µM).
In the case of NCI-H3122, the relative viability was 0.872 in the test with kb NB 142-70 + Lapatinib (first compound 0.1 µM); 1.01 with kb NB 142-70 + Lapatinib (first compound 1 µM); 0.947 with kb NB 142-70 + Lapatinib (first compound 3.162 µM); 0.37 in test [1] (first compound 0.02 µM); 0.432 in test [1] (first compound 0.06325 µM); 0.364 in test [1] (first compound 0.2 µM). The relative viability in test [1] (first compound 0.6325 µM) turned out to be 0.386; in test [1] (first compound 2 µM), 0.377; in test [2] (first compound 0.02 µM) it was 0.197; in test [2] (first compound 0.06325 µM) it was 0.182; in test [2] (first compound 0.2 µM), 0.179; in test [2] (first compound 0.6325 µM) it was 0.206. Further, the relative viability in test [2] (first compound 2 µM) came out at 0.155; in test [3] (first compound 0.02 µM), 0.862; in test [3] (first compound 0.06325 µM), 0.837; in test [3] (first compound 0.2 µM) it was 0.824; in test [3] (first compound 0.6325 µM) it was 0.912; in test [3] (first compound 2 µM), 0.799.
Consider NCI-H1975, for which the relative viability was found to be 0.894 with kb NB 142-70 + Lapatinib (first compound 0.1 µM); 0.881 with kb NB 142-70 + Lapatinib (first compound 1 µM); 0.433 with kb NB 142-70 + Lapatinib (first compound 3.162 µM); 0.392 in test [1] (first compound 0.02 µM); 0.375 in test [1] (first compound 0.06325 µM); 0.439 in test [1] (first compound 0.2 µM). Besides, the relative viability in test [1] (first compound 0.6325 µM) was 0.424; in test [1] (first compound 2 µM) it was 0.422; in test [2] (first compound 0.02 µM) it was 0.657; in test [2] (first compound 0.06325 µM) it was 0.61; in test [2] (first compound 0.2 µM), 0.615; in test [2] (first compound 0.6325 µM) it was 0.485. Further, the relative viability in test [2] (first compound 2 µM) was determined as 0.586; in test [3] (first compound 0.02 µM), 0.318; in test [3] (first compound 0.06325 µM) it was 0.387; in test [3] (first compound 0.2 µM), 0.443; in test [3] (first compound 0.6325 µM) it was 0.38; in test [3] (first compound 2 µM), 0.387.
NCI-H1944: the relative viability is 0.865 in the test with kb NB 142-70 + Lapatinib (first compound 0.1 µM); 0.827 with kb NB 142-70 + Lapatinib (first compound 1 µM); 0.936 in the test with kb NB 142-70 + Lapatinib (first compound 3.162 µM); 0.191 in test [1] (first compound 0.02 µM); 0.233 in test [1] (first compound 0.06325 µM); 0.204 in test [1] (first compound 0.2 µM). Besides, the relative viability in test [1] (first compound 0.6325 µM) came out at 0.201; in test [1] (first compound 2 µM) it was 0.207; in test [2] (first compound 0.02 µM), 0.333; in test [2] (first compound 0.06325 µM), 0.353; in test [2] (first compound 0.2 µM), 0.35; in test [2] (first compound 0.6325 µM) it was 0.32. In addition, the relative viability in test [2] (first compound 2 µM) stood at 0.355; in test [3] (first compound 0.02 µM), 0.199; in test [3] (first compound 0.06325 µM) it was 0.221; in test [3] (first compound 0.2 µM), 0.208; in test [3] (first compound 0.6325 µM), 0.211; in test [3] (first compound 2 µM) it was 0.24.
For the cell line LU99A, the relative viability in the test with kb NB 142-70 + Lapatinib (first compound 0.1 µM) is 0.977; with kb NB 142-70 + Lapatinib (first compound 1 µM), 0.858; with kb NB 142-70 + Lapatinib (first compound 3.162 µM), 0.71; in test [1] (first compound 0.02 µM), 0.76; in test [1] (first compound 0.06325 µM), 0.877; in test [1] (first compound 0.2 µM), 0.908. In addition, the relative viability is 0.824 in test [1] (first compound 0.6325 µM); 0.921 in test [1] (first compound 2 µM); 0.418 in test [2] (first compound 0.02 µM); 0.474 in test [2] (first compound 0.06325 µM); 0.434 in test [2] (first compound 0.2 µM); 0.487 in test [2] (first compound 0.6325 µM). Besides, the relative viability in test [2] (first compound 2 µM) was determined as 0.438; in test [3] (first compound 0.02 µM), 0.505; in test [3] (first compound 0.06325 µM), 0.602; in test [3] (first compound 0.2 µM), 0.538; in test [3] (first compound 0.6325 µM), 0.598; in test [3] (first compound 2 µM), 0.347.
As for HCC-44, the relative viability with kb NB 142-70 + Lapatinib (first compound 0.1 µM) was determined as 1.02; with kb NB 142-70 + Lapatinib (first compound 1 µM), 1.03; in the test with kb NB 142-70 + Lapatinib (first compound 3.162 µM) it was 0.996; in test [1] (first compound 0.02 µM), 0.308; in test [1] (first compound 0.06325 µM), 0.252; in test [1] (first compound 0.2 µM) it was 0.25. Moreover, the relative viability in test [1] (first compound 0.6325 µM) stood at 0.202; in test [1] (first compound 2 µM) it was 0.284; in test [2] (first compound 0.02 µM), 1.04; in test [2] (first compound 0.06325 µM) it was 0.961; in test [2] (first compound 0.2 µM), 0.994; in test [2] (first compound 0.6325 µM) it was 0.977. For the same cell line, the relative viability in test [2] (first compound 2 µM) was determined as 0.962.

For the origin of these results see the supplement of paper PMC10307832.
